In patent US10501481B2, “Heterocyclic compounds and their use in preventing or treating bacterial infections” (priority 2015, dated 2019):
pIC50: −log10 of the molar value.

Legend:
[1] = test system: K. pneumoniae UFR77 (CMY-2); assay: MIC broth microdilution, alone and synergy with ceftazidime; settings: for MIC: Klebsiella pneumoniae, read-out: MIC compounds of the invention alone; for MIC of CAZ in combination with compound at 4 μg/mL: strain UFR77, compound fixed at 4 μg/mL
[2] = molecular target: T1, OXA-15 (Pseudomonas aeruginosa, UniProt Q51574); assay: β-lactamase inhibitory activity, nitrocefin hydrolysis; assay type: biochemical
T1 construct: made in house; host or cells: E. coli
Experimental: (§1) Enzyme activity was monitored by spectrophotometric measurement of nitrocefin (NCF-TOKU-E, N005) hydrolysis at 485 nm, at room temperature and in assay buffer A: 100 mM Phosphate pH7, 2% glycerol and 0.1 mg/mL Bovine serum albumin (Sigma, B4287). […] To a transparent polystyrene plate (Corning, 3628) were added in each well 5 μL DMSO or inhibitor dilutions in DMSO and 80 μL enzyme in buffer A. Plates were immediately read at 485 nm in a microplate spectrophotometer (BioTek, PowerWave HT) to enable background subtraction. After 30 min of pre-incubation at room temperature, 15 μL of NCF (200 μM final) were finally added in each well. Final enzyme concentrations were 0.1 nM (TEM-1), 0.075 nM (SHV-1), 0.4 nM (CTX-M-15), 1 nM (KPC-2), 0.2 nM (P99 AmpC), 0.2 nM (CMY-37), 0.4 nM (AmpC P. aeruginosa), 0.2 nM (OXA-1), 1.2 nM (OXA-11), 0.4 nM (OXA-15) and 0.3 nM (OXA-48). After 20 min incubation at room temperature, plates were once again read at 485 nm. Enzyme activity was obtained by subtracting the final signal by the background, and was converted to enzyme inhibition using non inhibited wells. IC50 curves were fitted to a classical Langmuir equilibrium model with Hill slope using XLFIT (IDBS).

[3] = test system: P. aeruginosa CIP107051 (TEM-24); assay: MIC broth microdilution, alone and synergy with ceftazidime; settings: for MIC: Pseudomonas aeruginosa, CIP107051, read-out: MIC compounds of the invention alone; for MIC of CAZ in combination with compound at 4 μg/mL: strain CIP107051, compound fixed at 4 μg/mL
[4] = test system: K. pneumoniae UFR68 (TEM-1, SHV-11, CTX-M-15, KPC-3); assay: as above; settings: for MIC of CAZ in combination with compound at 4 μg/mL: strain UFR68, compound fixed at 4 μg/mL; for MIC: Klebsiella pneumoniae, read-out: MIC compounds of the invention alone
[5] = test system: K. pneumoniae 6299 (TEM-1, SHV-11, OXA-163); assay: as above; settings: for MIC: Klebsiella pneumoniae, read-out: MIC compounds of the invention alone; for MIC of CAZ in combination with compound at 4 μg/mL: strain 6299, compound fixed at 4 μg/mL
[6] = test system: E. coli 131119 (TEM-1, OXA-48); assay: as above; settings: for MIC: Escherichia coli, read-out: MIC compounds of the invention alone; for MIC of CAZ in combination with compound at 4 μg/mL: strain 131119, compound fixed at 4 μg/mL
[7] = test system: K. pneumoniae 160143 (TEM-1, SHV-1, CTX-M-15, KPC-2, OXA-1); assay: as above; settings: for MIC of CAZ in combination with compound at 4 μg/mL: strain 160143, compound fixed at 4 μg/mL
[8] = test system: E. coli UFR32 (TEM-1, VEB-1, OXA-10); assay: as above; settings: for MIC of CAZ in combination with compound at 4 μg/mL: strain UFR32, compound fixed at 4 μg/mL
[9] = molecular target: T2, OXA-48 (Klebsiella pneumoniae, UniProt Q6XEC0); assay: β-lactamase inhibitory activity, nitrocefin hydrolysis; assay type: biochemical
T2 construct: made in house; host or cells: E. coli
Experimental: as §1

[10] = molecular target: T3, P99 AmpC (Enterobacter cloacae, UniProt P05364); assay: as above; assay type: biochemical; settings: class (C); 30 min pre-incubation; nitrocefin 200 μM
T3 construct: made in house; host or cells: E. coli
Experimental: as §1

[11] = test system: E. coli UFR61O (TEM-1, KPC-2); assay: MIC broth microdilution, alone and synergy with ceftazidime; settings: for MIC: Escherichia coli, read-out: MIC compounds of the invention alone; for MIC of CAZ in combination with compound at 4 μg/mL: strain UFR61O, compound fixed at 4 μg/mL
[12] = test system: E. coli 190317 (TEM-1, SHV-12, CTX-M-15, OXA-1); assay: as above; settings: for MIC of CAZ in combination with compound at 4 μg/mL: strain 190317, compound fixed at 4 μg/mL
[13] = test system: E. coli UFR52 (TEM-1, SHV-12, IMP-8); assay: as above; settings: for MIC: Escherichia coli, read-out: MIC compounds of the invention alone; for MIC of CAZ in combination with compound at 4 μg/mL: strain UFR52, compound fixed at 4 μg/mL
[14] = molecular target: T4, OXA-1 (Escherichia coli, UniProt P13661); assay: β-lactamase inhibitory activity, nitrocefin hydrolysis; assay type: biochemical
T4 construct: made in house; host or cells: E. coli
Experimental: as §1

[15] = molecular target: AmpC P. aeruginosa (Pseudomonas aeruginosa, UniProt P24735); assay: biochemical
Experimental: Enzyme activity was monitored by spectrophotometric measurement of nitrocefin (NCF-TOKU-E, N005) hydrolysis at 485 nm, at room temperature and in assay buffer A: 100 mM Phosphate pH7, 2% glycerol and 0.1 mg/mL Bovine serum albumin (Sigma, B4287). Enzymes were cloned in E. coli expression vector, expressed and purified in house using classical procedures. To a transparent polystyrene plate (Corning, 3628) were added in each well 5 μL DMSO or inhibitor dilutions in DMSO and 80 μL enzyme in buffer A. Plates were immediately read at 485 nm in a microplate spectrophotometer (BioTek, PowerWave HT) to enable background subtraction. After 30 min of pre-incubation at room temperature, 15 μL of NCF (200 μM final) were finally added in each well. Final enzyme concentrations were 0.1 nM (TEM-1), 0.075 nM (SHV-1), 0.4 nM (CTX-M-15), 1 nM (KPC-2), 0.2 nM (P99 AmpC), 0.2 nM (CMY-37), 0.4 nM (AmpC P. aeruginosa), 0.2 nM (OXA-1), 1.2 nM (OXA-11), 0.4 nM (OXA-15) and 0.3 nM (OXA-48). After 20 min incubation at room temperature, plates were once again read at 485 nm. Enzyme activity was obtained by subtracting the final signal by the background, and was converted to enzyme inhibition using non inhibited wells. IC50 curves were fitted to a classical Langmuir equilibrium model with Hill slope using XLFIT (IDBS).

[16] = test system: E. coli RGN238 (OXA-1); assay: MIC broth microdilution, alone and synergy with ceftazidime; settings: for MIC: Escherichia coli, read-out: MIC compounds of the invention alone; for MIC of CAZ in combination with compound at 4 μg/mL: strain RGN238, compound fixed at 4 μg/mL
[17] = test system: E. cloacae UFR38 (CTX-M-15, NDM-1); assay: as above; settings: for MIC: Enterobacter cloacae, read-out: MIC compounds of the invention alone; for MIC of CAZ in combination with compound at 4 μg/mL: strain UFR38, compound fixed at 4 μg/mL
[18] = test system: E. coli UFR18 (CTX-M-15, OXA-204); assay: as above; settings: for MIC: Escherichia coli, read-out: MIC compounds of the invention alone; for MIC of CAZ in combination with compound at 4 μg/mL: strain UFR18, compound fixed at 4 μg/mL
[19] = test system: E. cloacae UFR70 (TEM-1, CTX-M-15, CMY-2, OXA-1, Porin loss); assay: as above; settings: for MIC: Enterobacter cloacae, read-out: MIC compounds of the invention alone; for MIC of CAZ in combination with compound at 4 μg/mL: strain UFR70, compound fixed at 4 μg/mL
[20] = test system: E. cloacae UFR85 (TEM-1, CTX-M-15, derepressed AmpC); assay: as above; settings: for MIC of CAZ in combination with compound at 4 μg/mL: strain UFR85, compound fixed at 4 μg/mL
[21] = test system: K. pneumoniae BAA-1898 (TEM-1, SHV-11, SHV-12, KPC-2); assay: microbe, parasite or virus in culture; assay type: cell-based; settings: for MIC: Klebsiella pneumoniae, BAA1898, read-out: MIC compounds of the invention alone; for MIC of CAZ in combination with compound at 4 μg/mL: strain BAA-1898, compound fixed at 4 μg/mL
[22] = test system: E. cloacae P99 (AmpC); assay: MIC broth microdilution, alone and synergy with ceftazidime; settings: for MIC: Enterobacter cloacae, read-out: MIC compounds of the invention alone; for MIC of CAZ in combination with compound at 4 μg/mL: strain P99, compound fixed at 4 μg/mL
[23] = molecular target: T5, SHV-1 (Klebsiella pneumoniae, UniProt P0AD64); assay: β-lactamase inhibitory activity, nitrocefin hydrolysis; assay type: biochemical
T5 construct: made in house; host or cells: E. coli
Experimental: as §1

[24] = Escherichia coli, read-out: MIC compounds of the invention alone

T2 sequence (Q6XEC0 23-265 limits assumed): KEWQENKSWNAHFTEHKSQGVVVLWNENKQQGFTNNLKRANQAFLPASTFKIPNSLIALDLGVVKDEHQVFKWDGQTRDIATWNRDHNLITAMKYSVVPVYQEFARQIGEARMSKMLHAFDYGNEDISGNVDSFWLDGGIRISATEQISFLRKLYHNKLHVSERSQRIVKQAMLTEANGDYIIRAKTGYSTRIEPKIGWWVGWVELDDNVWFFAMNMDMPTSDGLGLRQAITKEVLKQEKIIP
Chain of AmpC P. aeruginosa (P24735 27-397): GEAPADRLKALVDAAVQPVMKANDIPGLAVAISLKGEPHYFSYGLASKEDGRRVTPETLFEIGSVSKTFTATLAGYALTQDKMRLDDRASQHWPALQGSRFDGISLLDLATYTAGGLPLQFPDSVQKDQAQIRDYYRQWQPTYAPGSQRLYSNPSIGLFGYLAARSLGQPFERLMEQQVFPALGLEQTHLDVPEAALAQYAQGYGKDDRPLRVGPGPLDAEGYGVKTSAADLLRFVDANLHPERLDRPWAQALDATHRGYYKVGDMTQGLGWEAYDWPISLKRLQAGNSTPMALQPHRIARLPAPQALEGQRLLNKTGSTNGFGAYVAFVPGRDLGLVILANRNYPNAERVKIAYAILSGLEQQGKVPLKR
T4 sequence (P13661 26-276): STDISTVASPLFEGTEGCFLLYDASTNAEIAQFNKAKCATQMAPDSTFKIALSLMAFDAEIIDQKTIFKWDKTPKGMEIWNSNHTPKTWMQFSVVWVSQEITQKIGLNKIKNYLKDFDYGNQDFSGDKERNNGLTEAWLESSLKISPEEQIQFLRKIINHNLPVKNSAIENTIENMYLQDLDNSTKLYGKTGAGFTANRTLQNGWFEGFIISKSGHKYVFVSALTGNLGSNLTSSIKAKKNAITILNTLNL
T1 sequence (Q51574 22-275): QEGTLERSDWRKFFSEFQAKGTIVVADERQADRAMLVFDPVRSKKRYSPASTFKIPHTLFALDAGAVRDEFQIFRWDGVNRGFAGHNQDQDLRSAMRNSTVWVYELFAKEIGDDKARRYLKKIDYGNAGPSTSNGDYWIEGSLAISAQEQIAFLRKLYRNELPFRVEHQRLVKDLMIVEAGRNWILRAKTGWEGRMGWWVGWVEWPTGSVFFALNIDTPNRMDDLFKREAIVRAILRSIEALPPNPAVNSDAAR
T3 sequence (P05364 21-381): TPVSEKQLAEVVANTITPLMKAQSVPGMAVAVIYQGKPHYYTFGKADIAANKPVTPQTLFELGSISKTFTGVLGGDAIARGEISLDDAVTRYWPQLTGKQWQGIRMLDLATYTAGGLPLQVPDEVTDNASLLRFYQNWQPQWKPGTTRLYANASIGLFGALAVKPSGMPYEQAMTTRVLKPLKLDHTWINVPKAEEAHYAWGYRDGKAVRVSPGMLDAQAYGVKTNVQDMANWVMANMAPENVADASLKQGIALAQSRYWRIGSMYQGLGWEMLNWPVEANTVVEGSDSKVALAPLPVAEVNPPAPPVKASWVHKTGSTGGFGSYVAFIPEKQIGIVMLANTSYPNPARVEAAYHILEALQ
T5 sequence (P0AD64 22-286): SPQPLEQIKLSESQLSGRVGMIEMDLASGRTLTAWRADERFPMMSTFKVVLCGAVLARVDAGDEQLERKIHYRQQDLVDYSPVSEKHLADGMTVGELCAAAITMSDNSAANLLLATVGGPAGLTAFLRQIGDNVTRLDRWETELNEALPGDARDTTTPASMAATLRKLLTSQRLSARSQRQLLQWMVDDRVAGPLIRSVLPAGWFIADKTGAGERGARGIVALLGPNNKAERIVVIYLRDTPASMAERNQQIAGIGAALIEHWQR

Row | SMILES | MIC [1] [mg/L] | MIC of CAZ in combination with compound at 4 μg/mL [1] [mg/L] | pIC50 [2] | MIC [3] [mg/L] | MIC of CAZ in combination with compound at 4 μg/mL [3] [mg/L] | MIC of CAZ in combination with compound at 4 μg/mL [4] [mg/L] | MIC [5] [mg/L] | MIC of CAZ in combination with compound at 4 μg/mL [5] [mg/L] | MIC [6] [mg/L] | MIC of CAZ in combination with compound at 4 μg/mL [6] [mg/L] | MIC of CAZ in combination with compound at 4 μg/mL [7] [mg/L] | MIC of CAZ in combination with compound at 4 μg/mL [8] [mg/L] | pIC50 [9] | pIC50 [10] | MIC of CAZ in combination with compound at 4 μg/mL [11] [mg/L] | MIC of CAZ in combination with compound at 4 μg/mL [12] [mg/L] | MIC [13] [mg/L] | pIC50 [14] | pIC50 [15] | MIC [16] [mg/L] | also measured
1 | NCCn1c2c(sc1=O)C1CN(C2)C(=O)N1OS(=O)(=O)[O-].[Na+] (centres unmarked) [Example 4, Sodium and 2,2,2-trifluoroacetate [5-(2-azaniumethyl)-4,9-dioxo-3-thia-5,8,10-triaza-tricyclo[6.2.1.0^2.6]undec-2(6)-en-10-yl] sulfate] | 16 | ≤0.25 | 6.52 | 16 | 4 | <0.25 | 32 | ≤0.125 | 2 | <0.25 | ≤0.25 | <0.25 | 8.39 | 6.85 | <0.25 | <0.25 | 2 | 6.34 | 5.92 | 8 | MIC [8, 24]: 1 mg/L; MIC [11]: 4 mg/L; MIC [12, 24]: 1 mg/L; MIC of CAZ in combination with compound at 4 μg/mL [13]: <0.25 mg/L; MIC of CAZ in combination with compound at 4 μg/mL [16]: <0.25 mg/L; MIC [17]: 0.5 mg/L; MIC of CAZ in combination with compound at 4 μg/mL [17]: <0.25 mg/L; MIC [18]: 0.5 mg/L; MIC of CAZ in combination with compound at 4 μg/mL [18]: <0.25 mg/L; MIC [19]: 4 mg/L; MIC of CAZ in combination with compound at 4 μg/mL [19]: <0.25 mg/L; MIC ([20]; Enterobacter cloacae, read-out: MIC compounds of the invention alone): 2 mg/L; MIC of CAZ in combination with compound at 4 μg/mL [20]: <0.25 mg/L; MIC [21]: 16 mg/L; MIC of CAZ in combination with compound at 4 μg/mL [21]: ≤0.125 mg/L; MIC [22]: 0.5 mg/L; MIC of CAZ in combination with compound at 4 μg/mL [22]: <0.25 mg/L; pIC50 [23]: 7.68
2 | COC(=O)Cn1c2c(sc1=O)C1CN(C2)C(=O)N1OS(=O)(=O)[O-].[Na+] (centres unmarked) [Example 2, Sodium [5-(2-methoxy-2-oxo-ethyl)-4,9-dioxo-3-thia-5,8,10-triaza-tricyclo[6.2.1.0^2.6]undec-2(6)-en-10-yl] sulfate] | 4 | 0.25 | 7.24 | > 32 | 16 | 32 | 8 | 4 | 2 | <0.25 | 8 | <0.25 | 9.17 | 7.80 | <0.25 | <0.25 | 8 | 7.42 | 6.66 | 1 | MIC [4]: 32 mg/L; MIC ([7]; Klebsiella pneumoniae, read-out: MIC compounds of the invention alone): 16 mg/L; MIC [11]: 8 mg/L; MIC of CAZ in combination with compound at 4 μg/mL [16]: <0.25 mg/L; MIC [17]: 8 mg/L; MIC of CAZ in combination with compound at 4 μg/mL [17]: >128 mg/L; MIC [18]: 4 mg/L; MIC of CAZ in combination with compound at 4 μg/mL [18]: 0.5 mg/L; MIC of CAZ in combination with compound at 4 μg/mL [19]: 1 mg/L; MIC of CAZ in combination with compound at 4 μg/mL [20]: 16 mg/L; MIC [21]: 32 mg/L; MIC [22]: 16 mg/L; MIC of CAZ in combination with compound at 4 μg/mL [22]: 4 mg/L; pIC50 [23]: 8.89
3 | Cn1c2c(sc1=O)C1CN(C2)C(=O)N1OS(=O)(=O)[O-].[Na+] (centres unmarked) [Example 1, Sodium (5-methyl-4,9-dioxo-3-thia-5,8,10-triaza-tricyclo[6.2.1.0^2.6]undec-2(6)-en-10-yl) sulfate] | 8 | ≤0.25 | 6.60 | > 128 | 4 | 64 | 16 | 4 | 1 | <0.25 | 0.5 | <0.25 | 9.05 | 7.32 | <0.25 | ≤0.125 | 8 | 7.20 | 6.72 | 2 | MIC [4]: 32 mg/L; MIC of CAZ in combination with compound at 4 μg/mL [13]: 0.5 mg/L; MIC of CAZ in combination with compound at 4 μg/mL [16]: <0.25 mg/L; MIC [17]: 8 mg/L; MIC of CAZ in combination with compound at 4 μg/mL [17]: >128 mg/L; MIC [18]: 4 mg/L; MIC of CAZ in combination with compound at 4 μg/mL [18]: <0.25 mg/L; MIC [19]: 4 mg/L; MIC of CAZ in combination with compound at 4 μg/mL [19]: <0.25 mg/L; MIC of CAZ in combination with compound at 4 μg/mL [20]: <0.25 mg/L; MIC [21]: 16 mg/L; MIC of CAZ in combination with compound at 4 μg/mL [21]: 64 mg/L; MIC [22]: 8 mg/L; MIC of CAZ in combination with compound at 4 μg/mL [22]: 0.5 mg/L; pIC50 [23]: 7.92
